Assay results reported in patent publication US10624917B2, “Compositions and methods useful for treating or preventing liver diseases or disorders, and promoting weight loss” (YALE UNIVERSITY, priority 2014, dated 2020).
Entries after “also recorded” stand apart in the source; their conditions may differ.

How the values were obtained:
[1] = tested on: mice, chronic plus binge model of alcoholic hepatitis; assay: Chronic plus binge model of alcoholic hepatitis; format: in vivo, mouse
Experimental: (§1) C57BL/6J male mice were placed on a 45% high-fat diet (HFD) for […] with and without digoxin (ip 1 mg/kg twice a week). Digoxin, 1 mg/kg ip daily, in mice results in the therapeutic serum levels achieved in humans (0.5-2 ng/ml). Plasma ALT, liver histology, neutrophil staining, leukocytes profiling, mitochondrial reactive oxygen species (ROS) generation, and gene transcriptome microarrays were analyzed. The ability of digoxin to inhibit inflammasome in mouse and human macrophages was tested. The chronic plus binge model of alcoholic hepatitis and LPS/D-GalN hepatitis models were also performed.

[2] = tested on: IL-1β secretion and caspase-1 activation in mouse macrophages; assay: Inflammasome inhibition in mouse macrophages; format: cell-based
Experimental: as §1

in vivo = conditions: mouse, 1 mg/kg
Experimental: FIG. 19 is a bar graph illustrating plasma digoxin levels in mice. Saline or digoxin were daily injected in mice at a dose of 1.0 mg/kg. Plasma digoxin levels measured 24 hours after the final injection were at or below the therapeutic range for humans (0.8-2 ng/mL).
as §1

human macrophages = assay: Mitochondrial ROS production in human macrophages; format: cell-based; conditions: TLR and hydrogen peroxide stimulation
[3] = tested on: C57BL/6 mice on high-fat diet; assay: High-fat diet (HFD) NASH model; format: in vivo, mouse
Experimental: FIGS. 21A-21C illustrate the finding that digoxin reduces liver damage, inflammation, glycolysis and total cholesterol. FIG. […] The liver tissues were performed by H & E staining, and the neutrophils were stained with CD11b/Ly6G double positive cells by FACS. Data are expressed as the mean±SD from 5 mice in each treatment group. *p<0.05 determined by Student's t-test. […] Data are expressed as the mean±SD from 5 mice in each treatment group. *p<0.05 determined by Student's t-test. FIG. 21C: The liver total RNA were isolated from as procedure from FIG. 21a, and subjected to illumina transcriptome analysis. Over 15 genes that most highly expressed were listed. Data are expressed as the mean±SD from 3 mice in each treatment group
FIGS. 22A-22D illustrate the finding that digoxin reduces high fat feeding induced obesity in mice. Wild type C57BL/6 mice were supplied with high-fat diet food (Research diets D12451 45% fat) for 12 weeks with or without the concurrent IP injection of Digoxin (twice a week, 1.0 mg/kg) or PBS control. The body weight was carefully monitored as the change of each 3 day's average. […] FIG. 22A illustrates examples of mice on high-fat diet with (DIG) and without (Ctrl) digoxin. […] The ratio of white adipose tissue and bodyweight after 12 weeks is shown (FIG. 22C). […] Data are expressed as the mean±SD from 5 mice in each treatment group. *p<0.05 determined by Student's t-test.
FIGS. 24A-24G illustrate the finding that digoxin limits hepatic steatosis and inflammation. […] The liver tissues were applied for H & E staining, and graphs show quantification of NAFLD histological activity score (FIGS. 24A-24B). The liver tissue inflammation was also determined by the neutrophil and monocyte infiltration, which measured by CD11b/Ly6G and CD11b/Ly6C double positive cells using FACS ([…]). Representative FACS flows from digoxin versus saline control are shown (FIGS. 24F-24G). The quantification of neutrophils and monocytes in digoxin versus saline control was performed. Serum ALT level in digoxin versus saline control was measured (FIGS. 24C-24D). The steatosis maker of triacylglcerol (TG) accumulation in the lever after digoxin treatment versus saline control was determined (FIG. 24E). All data throughout the figure are shown as the mean±SD from 5 mice in each group. Statistical significance was determined by one-way ANOVA. *p<0.05, **p<0.01 for each digoxin group versus saline control.
as §1

[4] = tested on: C57BL/6 mice challenged with LPS/D-galactosamine; assay: LPS/D-GalN hepatitis (acute liver injury) model; format: in vivo, mouse
Experimental: FIGS. 23A-23D illustrate the finding that digoxin protects the severity of experimental acute liver failure. Digoxin was administrated intraperitoneally to C57BL/6 mice at dose level of 2, 1, 0.2, 0.05 mg/kg body weight and saline control for 1 hour, and then the mice were challenged with LPS (1 mg/kg body weight)/D-galactosamine (D-GalN) for 5 hours. The morphology of liver tissue was determined by H & E staining, and the inflammation was determined by the neutrophil infiltration of Gr-1 antibody staining Representative H & E stains (FIG. 23A, upper), and Gr-1 (FIG. 23A, lower) positive area of liver sections (original magnification ×100) from digoxin and saline control are illustrated. Graphs show quantification of injured (FIG. 23B) or Gr-1 (FIG. 23C) positive area by morphometry using Image J. *p<0.05 for each dosage of digoxin group versus saline control. The activity of the hepatic injury marker alanine transaminase (ALT) in serum level from digoxin versus saline control was measured (FIG. 23 D). All data throughout the figure are shown as the mean±SD. Statistical significance was determined by one-way ANOVA.
FIGS. 25A-25H illustrate the finding that digoxin alleviates hepatic oxidative stress and inflammasome activation. C57BL/6 mice were injected intraperitoneally with digoxin (1 mg/kg) and PBS control for 1 hour, and then challenged with LPS (1 mg/kg)/D-GlaN (500 mg/kg) for 5 h; C57BL/6 mice were on HFD with concurrent intraperitoneal injection of digoxin (1 mg/kg) for 12 weeks. The cellular oxidative stress and intracellular ROS production was monitored by intraperitoneal injection of DHE in last 30 min before the mice sacrificed. Representative DHE stains in LPS/D-GlaN (FIG. 25A) and HFD (FIG. 25B) from digoxin versus saline control are illustrated. The quantification of DHE positive area in digoxin versus saline control was performed (FIG. 25A, lower, and FIG. 25B, lower). The total RNA from liver tissue was isolated, and applied for gene expression of proIL-1β, TNFα, NLRP3 and HIF1a (FIGS. 25C-25F). The total liver protein was applied for protein expression of HIF1α, caspase-1, proIL-1β by western blot (FIG. 25H). The serum IL-1β was measured by ELISA (FIG. 25G). All data throughout the figure are shown as the mean±SD from 5 mice in each group. Statistical significance was determined by one-way ANOVA. *p<0.05, **p<0.01 for each digoxin group versus saline control.
as §1

mouse macrophages = assay: Mitochondrial ROS production in mouse macrophages; format: cell-based; conditions: TLR and hydrogen peroxide stimulation
[5] = HFD 12 weeks, IP twice a week 1.0 mg/kg
[6] = HFD 12 weeks, ip 0.2 and 0.05 mg/kg twice a week, low dose-dependent manner
[7] = ip 1 mg/kg, LPS/D-GlaN (5 h) and HFD (12 weeks) mice
[8] = twice, a quarter and a twentieth of the human equivalent dose

Question: With `C[C@H]1O[C@@H](O[C@@H]2[C@@H](O)C[C@H](O[C@@H]3[C@@H](O)C[C@@H](O[C@H]4CC[C@@]5(C)[C@H](CC[C@@H]6[C@@H]5C[C@@H](O)[C@]5(C)C(C7=CC(=O)OC7)CC[C@]65O)C4)O[C@@H]3C)O[C@@H]2C)C[C@H](O)[C@H]1O` (stereo partly drawn) [digoxin, 4-[(3S,5R,8R,9S,10S,12R,13S,14S)-3-[(2S,4S,5R,6R)-5-[(2S,4S,5R,6R)-5-[(2S,4S,5R,6R)-4,5-dihydroxy-6-methyl-oxan-2-yl]oxy-4-hydroxy-6-methyl-oxan-2-yl]oxy-4-hydroxy-6-methyl-oxan-2-yl]oxy-12,14-dihydroxy-10,13-dimethyl-1,2,3,4,5,6,7,8,9,11,12,15,16,17-tetradecahydrocyclopenta[a]phenanthren-17-yl]-5H-furan-2-one] as the compound, how does the histological injury [1] read?
Answer: reduced

Question: And the neutrophilic infiltrate [1]?
Answer: reduced

Question: What about the “serum ALT” value [1] of the same compound?
Answer: lower

Question: And the “IL-1 β secretion” value [2]?
Answer: inhibited

Question: And the caspase-1 activation [2]?
Answer: inhibited

Question: What about the concentration at 24 h (in vivo) of the same compound?
Answer: 0.8 to 2 ng/mL

Question: And the concentration at 24 h (in vivo; ip)?
Answer: 0.5 to 2 ng/mL

Question: And the “mitochondrial ROS production” value (human macrophages)?
Answer: dose-dependently inhibited

Question: What about the “fat deposition (liver oil red, TG content)” value ([3]; HFD 12 weeks, 1 mg/kg twice a week) of the same compound?
Answer: reduces

Question: And the glycolysis [3, 5]?
Answer: reduces

Question: And the “high fat feeding induced obesity” value [3, 5]?
Answer: reduces

Question: What about the liver damage [3, 5] of the same compound?
Answer: reduces

Question: What about the serum total cholesterol [3, 5] of the same compound?
Answer: reduces

Question: What about the hepatic steatosis [3, 6] of the same compound?
Answer: limits

Question: And the liver inflammation [3, 6]?
Answer: limits

Question: And the “signal genes of ROS metabolism, antioxidant pathway and glycolysis (microarray)” value ([3]; HFD liver)?
Answer: down-regulated

Question: What about the “serum ALT” value ([3]; HFD+DIG, HFD alone 417±398 U/L, P<0.001) of the same compound?
Answer: 91±73 U/L

Question: And the liver inflammation ([3]; HFD, IP twice a week 1 mg/kg)?
Answer: reduces; also recorded: limits

Question: What about the hepatic steatosis ([3]; HFD, ip 1 mg/kg twice a week) of the same compound?
Answer: limits

Question: What about the histological injury ([3]; HFD, ip 1 mg/kg twice a week) of the same compound?
Answer: reduced

Question: What about the neutrophilic infiltrate ([3]; HFD, ip 1 mg/kg twice a week) of the same compound?
Answer: reduced

Question: What about the liver inflammation ([3]; digoxin started after 4 weeks HFD) of the same compound?
Answer: significant reduction

Question: And the liver neutrophil ([3]; digoxin started after 4 weeks HFD, HFD alone 24.6%)?
Answer: 14.3%

Question: What about the liver monocytes ([3]; digoxin started after 4 weeks HFD, HFD alone 31.6%) of the same compound?
Answer: 19.1%

Question: And the “body weight / weight gain” value ([3]; mice on HFD)?
Answer: less weight gain; also recorded: changes

Question: And the histological injury ([4]; LPS/D-GalN hepatitis)?
Answer: reduced

Question: What about the neutrophilic infiltrate ([4]; LPS/D-GalN hepatitis) of the same compound?
Answer: reduced

Question: And the “serum ALT” value ([4]; LPS/D-GalN hepatitis)?
Answer: lower

Question: And the hepatic oxidative stress [4, 7]?
Answer: alleviates

Question: And the inflammasome activation [4, 7]?
Answer: alleviates

Question: And the “severity of experimental acute liver failure” value ([4]; ip 2, 1, 0.2, 0.05 mg/kg 1 hour before LPS/D-GalN for 5 hours)?
Answer: protects

Question: What about the “inflammation in an acute liver injury model” value ([4]; mouse, in vivo) of the same compound?
Answer: inhibits

Question: And the HIF-1α protein [4, 8]?
Answer: reduction

Question: What about the IL-1β protein [4, 8] of the same compound?
Answer: reduction

Question: And the “cleaved (P10) caspase-1 protein” value [4, 8]?
Answer: reduction

Question: And the “liver HIF-1α transcripts” value [4, 8]?
Answer: reduction

Question: What about the “liver Pro-IL-1β transcripts” value [4, 8] of the same compound?
Answer: reduction

Question: What about the “liver hemorrhage and necrosis” value [4, 8] of the same compound?
Answer: improvement

Question: And the pro-IL-1β protein [4, 8]?
Answer: reduction

Question: And the “mitochondrial ROS production” value (mouse macrophages)?
Answer: dose-dependently inhibited
